Assay results: patent publication US9617244B2, “Antibacterial quinoline derivatives” (JANSSEN PHARMACEUTICA NV, priority 2012, dated 2017)
Values after ≈ are worked out from the molar mass of the structure shown.

Legend:
[1] = system: Staphylococcus aureus (ATCC29213); test: In-vitro anti-bacterial activity, microtitre plate assay, IC90 determination (non-mycobacterial strains); format: cell-based; settings: 90% inhibitory concentration for bacterial growth, resazurin fluorescence; for IC90 STA B29213: 24 hours; for IC90: Staphylococcus aureus, ATCC29213, 24 h, read-out: IC90 STA B29213
Method in brief: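 Growth inhibition measured fluorometrically with resazurin (530/590 nm) after overnight 37 °C incubation under normal atmosphere. Bacteria added at roughly 100 TCID50 per well in Mueller-Hinton broth to five-fold compound dilution series; IC90 reported in μg/ml.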

[2] = system: Mycobacterium smegmatis (ATCC607); test: In-vitro anti-bacterial activity against strain M. Smegmatis ATCC607; format: cell-based; settings: 90% inhibitory concentration for bacterial growth, Alamar Blue fluorescence; for IC90 MSM 607: 48 hours; for IC90: Mycolicibacterium smegmatis, ATCC607, 48 h, read-out: IC90 MSM 607
Method in brief: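 IC90 (μg/ml) derived from Alamar Blue fluorescence (530/590 nm) after 48 h growth at 37 °C under 5% CO2. About 250 CFU per well in Mueller-Hinton broth faced five-fold serial compound dilutions in BSA-containing wells.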

CS(=O)(=O)c1ccc2[nH]c(=O)c(C(c3ccc(Cl)cc3)C3(O)CCN[C@@H](Cc4ccc(F)c(F)c4)C3)cc2c1 (stereo in doubt) [Compound 205]
IC90 STA B29213 [1]: >15.22 µg/mL | IC90 MSM 607 [2]: >15.22 µg/mL

COc1nc2ccc(Br)cc2cc1C(c1ccc(Cl)cc1)C1(O)CCNC(C)C1 (stereo not drawn) [Compound 125]
IC90 STA B29213 [1]: 3.00 µg/mL (≈ 6.3 µM) | IC90 MSM 607 [2]: 3.00 µg/mL (≈ 6.3 µM)

C=CC1CC(O)(C(c2ccc(Cl)cc2)c2cc3cc(Br)ccc3[nH]c2=O)CCN1 (stereo not drawn) [Compound 362]
IC90 STA B29213 [1]: 12.82 µg/mL (≈ 27.1 µM) | IC90 MSM 607 [2]: 10.18 µg/mL (≈ 21.5 µM)

O=c1[nH]c2ccc(Br)cc2cc1C(c1ccc(Cl)cc1)C1(O)CCNC(Cc2ccc(F)cc2F)C1 (stereo not drawn) [Compound 314]
IC90 STA B29213 [1]: 3.05 µg/mL (≈ 5.31 µM) | IC90 MSM 607 [2]: 4.83 µg/mL (≈ 8.42 µM)

COc1nc2ccc(SC)cc2cc1C(c1ccc(Cl)cc1)C1(O)CCNC(CC2CCCCC2)C1 (stereo not drawn) [Compound 289]
IC90 STA B29213 [1]: 4.23 µg/mL (≈ 8.05 µM) | IC90 MSM 607 [2]: 3.36 µg/mL (≈ 6.4 µM)

Cc1cc(F)ccc1C1CC(O)(C(c2ccc(S(C)(=O)=O)cc2)c2cc3cc(Cl)ccc3[nH]c2=O)CCN1 (stereo not drawn) [Compound 377]
IC90 [1]: > 14.9 µg/mL | IC90 [2]: > 14.9 µg/mL

O=c1[nH]c2ccc(Br)cc2cc1C(c1cccc(Cl)c1)C1(O)CCNC(Cc2ccccc2)C1 (stereo not drawn) [Compound 85]
IC90 STA B29213 [1]: 7.23 µg/mL (≈ 13.4 µM) | IC90 [2]: 3.62 µg/mL (≈ 6.73 µM)

COc1nc2ccc(Cl)cc2cc1C(c1ccc(Cl)cc1)C1(O)CCN(C(C)c2ccccc2)C(c2cccnc2)C1 (stereo not drawn) [Compound 22]
IC90 [1]: > 15 µg/mL | IC90 [2]: > 15 µg/mL

O=c1[nH]c2ccc(Br)cc2cc1C(c1ccc(Cl)cc1)C1(O)CCNC(CC2CCCCC2)C1 (stereo not drawn) [Compound 254]
IC90 [1]: 3.6 µg/mL (≈ 6.62 µM) | IC90 MSM 607 [2]: 3.60 µg/mL (≈ 6.62 µM)

CSc1ccc2[nH]c(=O)c(C(c3cccc(Cl)c3)C3(O)CCNC(Cc4ccc(F)cc4F)C3)cc2c1 (stereo not drawn) [Compound 312]
IC90 STA B29213 [1]: 3.62 µg/mL (≈ 6.69 µM) | IC90 MSM 607 [2]: 3.62 µg/mL (≈ 6.69 µM)

COc1nc2ccc(Br)cc2cc1C(c1cccc(Cl)c1)C1(O)CCNC(c2ccc(F)cc2C)C1 (stereo not drawn) [Compound 152]
IC90 STA B29213 [1]: 2.78 µg/mL (≈ 4.88 µM) | IC90 MSM 607 [2]: 1.76 µg/mL (≈ 3.09 µM)

COc1nc2ccc(SC)cc2cc1C(c1ccc(Cl)cc1)C1(O)CCNC(Cc2ccc(F)c(F)c2)C1 (stereo not drawn) [Compound 190]
IC90 STA B29213 [1]: 1.39 µg/mL (≈ 2.5 µM) | IC90 MSM 607 [2]: 1.76 µg/mL (≈ 3.17 µM)

CSc1ccc2[nH]c(=O)c(C(c3ccccc3)C3(O)CCNC(c4ccc(F)cc4C)C3)cc2c1 (stereo not drawn) [Compound 179]
IC90 STA B29213 [1]: 8.69 µg/mL (≈ 17.8 µM) | IC90 MSM 607 [2]: 6.15 µg/mL (≈ 12.6 µM)

Cc1cc(F)ccc1C1CC(O)(C(c2ccccc2)c2cc3cc(S(C)(=O)=O)ccc3[nH]c2=O)CCN1 (stereo not drawn) [Compound 264]
IC90 STA B29213 [1]: >13.88 µg/mL | IC90 MSM 607 [2]: 3.49 µg/mL (≈ 6.7 µM)

CSc1nc2ccc(Br)cc2cc1C(c1ccc(Cl)cc1)C1(O)CCNC(Cc2ccccc2)C1 (stereo not drawn) [Compound 89]
IC90 [1]: 3.58 µg/mL (≈ 6.3 µM) | IC90 [2]: 1.8 µg/mL (≈ 3.17 µM)

CSc1ccc2[nH]c(=O)c(C(c3cccc(Cl)c3)C3(O)CCNC(Cc4ccc(F)cc4F)C3)cc2c1 (stereo not drawn) [Compound 309]
IC90 STA B29213 [1]: 14.50 µg/mL (≈ 26.8 µM) | IC90 MSM 607 [2]: 11.52 µg/mL (≈ 21.3 µM)

CS(=O)(=O)c1ccc2[nH]c(=O)c(C(c3ccc(Cl)cc3)C3(O)CCNC(Cc4ccc(F)cc4)C3)cc2c1 (stereo not drawn) [Compound 58]
IC90 STA B29213 [1]: >13.94 µg/mL | IC90 MSM 607 [2]: >13.94 µg/mL

O=c1[nH]c2ccc(Cl)cc2cc1C(c1ccc(Cl)cc1)C1(O)CCNCC1F (stereo not drawn) [Compound 457]
IC90 [1]: 11.5 µg/mL (≈ 27.3 µM) | IC90 [2]: 5.76 µg/mL (≈ 13.7 µM)

COc1nc2ccccc2cc1C(c1ccccc1)C1(O)CCNC(Cc2ccccc2)C1 (stereo not drawn) [Compound 402]
IC90 STA B29213 [1]: >12.47 µg/mL | IC90 MSM 607 [2]: 12.47 µg/mL (≈ 28.4 µM)

CSc1ccc2[nH]c(=O)c(C(c3cccc(Cl)c3)C3(O)CCNC(Cc4ccc(F)cc4F)C3)cc2c1 (stereo not drawn) [Compound 329]
IC90 STA B29213 [1]: 7.27 µg/mL (≈ 13.4 µM) | IC90 MSM 607 [2]: 7.27 µg/mL (≈ 13.4 µM)

COc1nc2ccc(Cl)cc2cc1C(c1ccc(Cl)cc1)C1(O)CCNCC1C (stereo not drawn) [Compound 420]
IC90 [1]: 5.43 µg/mL (≈ 12.6 µM) | IC90 MSM 607 [2]: 5.43 µg/mL (≈ 12.6 µM)

CSc1ccc2nc(O)c(C(c3ccccc3)C3(O)CCNC(c4ccc(F)cc4C)C3)cc2c1 (stereo not drawn) [Compound 182]
IC90 [1]: 6.6 µg/mL (≈ 13.5 µM) | IC90 [2]: 6.6 µg/mL (≈ 13.5 µM)

COc1nc2ccc(Br)cc2cc1C(n1cccn1)[C@@]1(O)CCN[C@H](Cc2ccccc2)C1 (stereo in doubt) [Compound 67]
IC90 [1]: 14.9 µg/mL (≈ 29.4 µM) | IC90 [2]: 7.47 µg/mL (≈ 14.7 µM)

C=CC1CC(O)(C(c2ccc(Cl)cc2)c2cc3cc(Br)ccc3[nH]c2=O)CCN1 (stereo not drawn) [Compound 359]
IC90 [1]: 12.8 µg/mL (≈ 27.1 µM) | IC90 [2]: 10.2 µg/mL (≈ 21.5 µM)

COc1nc2ccc(F)cc2cc1C(c1ccc(Cl)cc1)C1(O)CCNC(c2ccc(F)cc2C)C1 (stereo not drawn) [Compound 331]
IC90 STA B29213 [1]: 1.06 µg/mL (≈ 2.08 µM) | IC90 MSM 607 [2]: 0.94 µg/mL (≈ 1.85 µM)

COc1nc2ccc(SC)cc2cc1C(c1ccc(Cl)cc1)C1(O)CCNC(c2ccc(F)cc2C)C1 (stereo not drawn) [Compound 242]
IC90 STA B29213 [1]: 1.51 µg/mL (≈ 2.81 µM) | IC90 [2]: 1.2 µg/mL (≈ 2.23 µM)

O=c1[nH]c2ccc(F)cc2cc1C(c1ccc(Cl)cc1)C1(O)CCNC(Cc2ccccc2)C1 (stereo not drawn) [Compound 375]
IC90 STA B29213 [1]: >12.90 µg/mL | IC90 MSM 607 [2]: 12.90 µg/mL (≈ 27 µM)

O=c1[nH]c2ccc(Br)cc2cc1C(c1ccc(Cl)cc1)C1(O)CCNCC1Cc1cccc(F)c1 (stereo not drawn) [Compound 336]
IC90 STA B29213 [1]: 3.51 µg/mL (≈ 6.31 µM) | IC90 MSM 607 [2]: 7.00 µg/mL (≈ 12.6 µM)

O=c1[nH]c2ccc(Cl)cc2cc1C(c1ccc(Cl)cc1)C1(O)CCNC(Cc2ccccc2)C1 (stereo not drawn) [Compound 239]
IC90 STA B29213 [1]: 1.67 µg/mL (≈ 3.38 µM) | IC90 MSM 607 [2]: 2.97 µg/mL (≈ 6.02 µM)

COc1nc2ccc(F)cc2cc1C(c1ccc(Cl)cc1)C1(O)CCN(C(C)c2ccccc2)C(CO)C1 (stereo not drawn) [Compound 14]
IC90 STA B29213 [1]: 6.74 µg/mL (≈ 12.6 µM) | IC90 MSM 607 [2]: 3.79 µg/mL (≈ 7.08 µM)

Cc1cc(F)ccc1C1CC(O)(C(c2ccccc2)c2cc3cc(-c4cccnc4)ccc3[nH]c2=O)CCN1 (stereo not drawn) [Compound 236]
IC90 [1]: 10.3 µg/mL (≈ 19.7 µM) | IC90 [2]: 7.26 µg/mL (≈ 14 µM)

COc1nc2ccc(Br)cc2cc1C(c1cccc(Cl)c1)C1(O)CCNC(c2ccc(F)cc2C)C1 (stereo not drawn) [Compound 150]
IC90 STA B29213 [1]: 2.63 µg/mL (≈ 4.61 µM) | IC90 MSM 607 [2]: 1.66 µg/mL (≈ 2.91 µM)

CS(=O)(=O)c1ccc2[nH]c(=O)c(C(c3ccc(Cl)cc3)C3(O)CCNC(Cc4ccccc4)C3)cc2c1 (stereo not drawn) [Compound 120]
IC90 STA B29213 [1]: 6.76 µg/mL (≈ 12.6 µM) | IC90 MSM 607 [2]: 5.37 µg/mL (≈ 10 µM)

CC1CC(O)(C(c2ccc(Cl)cc2)c2cc3cc(Br)ccc3[nH]c2=O)CCN1 (stereo not drawn) [Compound 131]
IC90 STA B29213 [1]: >6.27 µg/mL | IC90 MSM 607 [2]: 4.98 µg/mL (≈ 10.8 µM)

COc1nc2ccc(S(C)(=O)=O)cc2cc1C(c1cccc(Cl)c1)C1(O)CCNC(Cc2ccc(F)cc2F)C1 (stereo not drawn) [Compound 325]
IC90 STA B29213 [1]: >19.04 µg/mL | IC90 MSM 607 [2]: 19.04 µg/mL (≈ 32.4 µM)

COc1nc2ccc(SC(C)C)cc2cc1C(c1ccc(Cl)cc1)C1(O)CCNC(Cc2ccccc2)C1 (stereo not drawn) [Compound 385]
IC90 STA B29213 [1]: 1.73 µg/mL (≈ 3.16 µM) | IC90 MSM 607 [2]: 1.37 µg/mL (≈ 2.5 µM)

COc1nc2ccc(Br)cc2cc1C(c1cccc(Cl)c1)C1(O)CCNC(c2ccc(F)cc2C)C1 (stereo not drawn) [Compound 173]
IC90 STA B29213 [1]: 2.86 µg/mL (≈ 5.02 µM) | IC90 [2]: 3.2 µg/mL (≈ 5.62 µM)

COc1nc2ccc(Br)cc2cc1C(c1ccc(Cl)cc1)C1(O)CCNC(Cc2ccccn2)C1 (stereo not drawn) [Compound 379]
IC90 STA B29213 [1]: 3.49 µg/mL (≈ 6.31 µM) | IC90 MSM 607 [2]: 2.77 µg/mL (≈ 5.01 µM)

O=c1[nH]c2ccc(Br)cc2cc1C(c1ccc(Cl)cc1)C1(O)CCNC(Cc2ccc(F)cc2F)C1 (stereo not drawn) [Compound 321]
IC90 STA B29213 [1]: 15.33 µg/mL (≈ 26.7 µM) | IC90 MSM 607 [2]: 12.18 µg/mL (≈ 21.2 µM)

COc1nc2ccc(SC)cc2cc1C(c1ccc(Cl)cc1)C1(O)CCNC(c2ccc(F)cc2C)C1 (stereo not drawn) [Compound 276]
IC90 STA B29213 [1]: 1.70 µg/mL (≈ 3.17 µM) | IC90 MSM 607 [2]: 1.07 µg/mL (≈ 1.99 µM)

COc1nc2ccc(Cl)cc2cc1C(c1ccc(Cl)cc1)C1(O)CCNC(Cc2ccc(F)cc2)C1 (stereo not drawn) [Compound 346]
IC90 STA B29213 [1]: 2.13 µg/mL (≈ 4.05 µM) | IC90 MSM 607 [2]: 1.69 µg/mL (≈ 3.22 µM)

COc1nc2ccc(SC)cc2cc1C(c1cccc(Cl)c1)C1(O)CCNC(c2ccc(F)cc2C)C1 (stereo not drawn) [Compound 166]
IC90 STA B29213 [1]: 3.09 µg/mL (≈ 5.75 µM) | IC90 MSM 607 [2]: 1.95 µg/mL (≈ 3.63 µM)

Cc1cc(F)ccc1C1CC(O)(C(c2ccc(Cl)cc2)c2cc3cc(S(C)(=O)=O)ccc3[nH]c2=O)CCN1 (stereo not drawn) [Compound 222]
IC90 STA B29213 [1]: >14.78 µg/mL | IC90 MSM 607 [2]: >14.78 µg/mL

COc1nc2ccc(Cl)cc2cc1C(c1ccc(Cl)cc1)C1(O)CCNC(c2ccccc2)C1 (stereo not drawn) [Compound 404]
IC90 STA B29213 [1]: 2.99 µg/mL (≈ 6.06 µM) | IC90 MSM 607 [2]: 1.68 µg/mL (≈ 3.4 µM)

COc1nc2ccc(SC(C)C)cc2cc1C(c1ccc(Cl)cc1)C1(O)CCNC(Cc2ccccc2)C1 (stereo not drawn) [Compound 383]
IC90 STA B29213 [1]: 3.45 µg/mL (≈ 6.31 µM) | IC90 MSM 607 [2]: 2.74 µg/mL (≈ 5.01 µM)
